Source: patent US20260034192A1 (University of Saskatchewan, priority 2022, published 2026)
Several values for one entry are separate records, joined by “and”; a condition that tells them apart may be missing. Equal entries are not always repeated. Marks after values point to notes of the source that are not given here. Square brackets hold non-standard residues; d marks the D form. Peptide text beside a SMILES is read from it. dPhe(4-Cl) = N[C@H](Cc1ccc(Cl)cc1)C(=O)O; d2Nal = N[C@H](Cc1ccc2ccccc2c1)C(=O)O; dCit = NC(=O)NCCC[C@@H](N)C(=O)O; d3Pal = N[C@H](Cc1cccnc1)C(=O)O

How the values were obtained:
[1] = tested on: alpacas; assay: Alpaca Cetrorelix known stage study, two injections (Example 2); format: in vivo; conditions: for Wave emergence after the first Cetrorelix injection, average: 2 x 1.5 mg i/m, D5 and D10 groups combined
Excerpt: Methods: The specific objective of this experiment was to identify the pattern of growth for the dominant follicle in alpacas following treatment with a GnRH antagonist during two contrasting stages of the follicular wave. Based on data from natural spontaneous waves in alpacas, the dominant follicle is expected to be in early- to mid-growing phase (6 to 7 mm in diameter) on Day 5 and in mid-static phase (9 to 10 mm) on Day 10, so the treatments were planned to begin on these days.
The experimental design is illustrated FIG. 3. Transrectal ovarian ultrasonography was performed using an Esoate My Lab 5 ultrasound machine and a 7.5 linear array transducer attached to a custom-build rigid PVC pipe handle. The pipe was slightly curved at the transducer end to facilitate manipulation of the transducer. The transducer and the plastic handle were lubricated using methyl cellulose ultrasound gel and inserted slowly into the rectum after manual removal of the faeces. Reproductive track and ovaries were located and 10 to 20 second video clips of left and right ovary were recorded. Sketches of ovaries were drawn daily at the time of imaging to record location, size and number of follicles >2 mm in diameter as well as the size and location of the corpus luteum (if present). Ultrasound examinations were performed daily. The experimental data recording began when a spontaneous emergence of a new follicular wave detected in an animal (defined as Extant follicular wave). The day of wave emergence was designated as Day 0 and was defined retrospectively as the first detection of the dominant follicle at 4 or 5 mm size with concomitant increase in number of 3-4 mm follicles.
The first group of alpacas (Control group) were given no treatment, their ovaries were examined daily and blood samples were obtained daily from Day 4 to 12 to compare hormonal data from analogous days after Cetrorelix treatment. The second group of alpacas (D5 group) were given the first intramuscular injection of 1.5 mg (3 mL of 0.5 mg per mL solution) Cetrorelix acetate on Day 5 and a second injection of 3 mL on Day 6 (i.e., two i/m injections of 1.5 mg Cetrorelix at 24 hour interval for a total dose of 3 mg). The Cetrorelix dose administered was approximately equal to 20 ug/Kg body weight per day (considering average body weight of alpaca=75 kg) and based on the previous studies in llama and cattle (Silva et al, 2011, Ulker et al 2001). Alpacas in the third group (D10 group) were given the first intramuscular injection of 1.5 mg Cetrorelix acetate on Day 10 and a second injection of 1.5 mg on Day 11.
Cetrorelix treatments were given during the extant follicular wave. Changes in the size of the dominant follicle, largest subordinate follicle, and the number of ≥3 mm follicles were recorded daily from spontaneous emergence of extant follicular wave to Day 6 of next (post-treatment) follicular wave emergence. The inter-wave interval was determined based on duration between emergence of successive follicular waves.
Blood samples (5 to 8 mL) were collected in heparinized tubes (BD Vacutainer, BD Franklin Lakes, NJ, USA) via jugular venipuncture. Blood samples were kept on ice packs till centrifugation at 200 rpm (within 1 hr of collection) to obtain plasma samples that were immediately frozen at −20° C. until measurement of plasma LH. Plasma samples were obtained on Day 4 to 7 in Group 2 (that is, 1 day before to 1 day after Cetrorelix treatment) and on Day 9 to 12 in Group 3. For direct comparison, plasma samples were obtained from Day 4 to 12 in control group.

[2] = tested on: heifers; assay: Single 3 mg Cetrorelix injection on Day 1, 3 or 6 of wave in heifers (Example 5); format: in vivo, cattle; conditions: for Pregnant/AI: diagnosis 30 days after AI; for Ovulatory follicle size: in mm (unit assumed)
Method: Heifers on a random day of the cycle were treated with two i/m injections of prostaglandin analog and observed by transrectal ultrasonography for the day of ovulation (Defined as Day 0 of the wave). Heifers were then randomized into 4 groups (n=7 to 8 per group) and treated with normal saline (control group) or a single 3 mg i/m injection of cetrorelix on Day 1, Day 3 or Day 6 of the first follicular wave. […] Pregnancy diagnosis was done 30 days after artificial insemination.

[3] = 2 x 1.5 mg i/m starting Day 5 (D 5)
[4] = 2 x 1.5 mg i/m starting Day 10 (D 10)
[5] = 2 x 1.5 mg i/m starting Day 10 (D 10), n = 6
[6] = single 3 mg i/m on Day 1 (Cetro 1)
[7] = single 3 mg i/m on Day 3 (Cetro 3)
[8] = single 3 mg i/m on Day 6 (Cetro 6)
[9] = three cetrorelix groups combined

With `CC(=O)N[C@H](Cc1ccc2ccccc2c1)C(=O)N[C@H](Cc1ccc(Cl)cc1)C(=O)N[C@H](Cc1cccnc1)C(=O)N[C@@H](CO)C(=O)N[C@@H](Cc1ccc(O)cc1)C(=O)N[C@H](CCCNC(N)=O)C(=O)N[C@@H](CC(C)C)C(=O)N[C@@H](CCCNC(=N)N)C(=O)N1CCC[C@H]1C(=O)N[C@H](C)C(N)=O` [Cetrorelix, N-acetyl-3-(2-naphthyl)-D-alanyl-4-chloro-D-phenylalanyl-3-(3-pyridyl)-D-alanyl-L-seryl-L-tyrosyl-D-citrullyl-L-leucyl-L-arginyl-L-prolyl-D-alaninamide] (Ac-[d2Nal][dPhe(4-Cl)][d3Pal]SY[dCit]LRP[dA]-NH2) the “Extant Wave: Total Number of Follicles on Day of Emergence” value ([1]; 1.5 mg Cetrorelix acetate i/m twice at 24 hr interval starting Day 5 (D 5)) was 10.71 ± 0.97, the “Extant Wave: Total Number of Follicles on Day of Emergence” value ([1]; 1.5 mg Cetrorelix acetate i/m twice at 24 hr interval starting Day 10 (D 10)) was 9.14 ± 1.39 and the “Day of largest subordinate follicle maximum diameter” value [1, 3] was 1.86 ± 1.01 days. The “Degree of Synchrony: Days from treatment to next wave emergence” value [1, 3] was 7.71 ± 0.36 days and 7.7 ± 0.36 days, the “Dominant Follicle Diameter on Day 5 (mm)” value [1, 3] was 6.64 ± 0.43 mm and the “Dominant Follicle Diameter on Day 10 (mm)” value [1, 3] was 5.50 ± 0.87^b mm. For the same molecule, the “Dominant Follicle Diameter on Day of Cetrorelix Treatment (mm)” value [1, 3] was 6.64 ± 0.43^a mm, the “Dominant Follicle End of Growth (days)” value [1, 3] was 4.86 ± 0.40^b days and the “Interwave Interval” value [1, 3] was 12.7 ± 0.36 days and 12.7 days. The “Interwave Interval (days)” value [1, 3] was 12.71 ± 0.36^b days, the “Largest Subordinate Follicle Diameter on Day 5 (mm)” value [1, 3] was 3.21 ± 0.21 mm and the “Largest Subordinate Follicle Diameter on Day 10 (mm)” value [1, 3] was 2.71 ± 0.81 mm. For the same molecule, the “Largest Subordinate Follicle Diameter on Day of Cetrorelix Treatment (mm)” value [1, 3] was 3.21 ± 0.21 mm, the “Largest Subordinate Follicle Maximum Diameter (mm)” value [1, 3] was 4.57 ± 0.40 mm and the “Next Wave: Total Number of Follicles on Day of Emergence” value [1, 3] was 13.14 ± 1.47. The “Day of dominant follicle maximum diameter” value [1, 4] was 10.3±0.68 days and 10.29 ± 0.68^a days, the “Day of largest subordinate follicle maximum diameter” value [1, 4] was 6.00 ± 1.36 days and the “Dominant Follicle Diameter on Day 5 (mm)” value [1, 4] was 9.71 ± 1.77 mm. The “Dominant Follicle Diameter on Day 10 (mm)” value [1, 4] was 10.36 ± 0.85^a mm, the “Dominant Follicle Diameter on Day of Cetrorelix Treatment (mm)” value [1, 4] was 10.36 ± 0.85^b mm and the “Dominant Follicle End of Growth (days)” value [1, 4] was 8.00 ± 0.38^a days. The “Dominant Follicle Length of Static Phase” value [1, 4] was 4.9 ± 0.40 days, the “Dominant Follicle Length of Static Phase (days)” value [1, 4] was 4.86 ± 0.40^ab days and the “Dominant Follicle Maximum Diameter (mm)” value [1, 4] was 10.9±0.70 mm and 10.93 ± 0.70^a mm. The “Dominant Follicle Onset of Regression” value [1, 4] was 12.9 ± 0.34 days, the “Dominant Follicle Onset of Regression (days)” value [1, 4] was 12.86 ± 0.34^a days and the “Largest Subordinate Follicle Diameter on Day 5 (mm)” value [1, 4] was 4.21 ± 0.76 mm. For the same molecule, the “Largest Subordinate Follicle Diameter on Day 10 (mm)” value [1, 4] was 4.00 ± 0.97 mm, the “Largest Subordinate Follicle Diameter on Day of Cetrorelix Treatment (mm)” value [1, 4] was 4.00 ± 0.97 mm and the “Largest Subordinate Follicle Maximum Diameter (mm)” value [1, 4] was 5.79 ± 1.02 mm. The “Interwave Interval” value [1, 5] was 17.71 ± 0.52 days and 18.17 days, the “Interwave Interval (days)” value [1, 5] was 17.71 ± 0.52^c# days and the “Next Wave: Total Number of Follicles on Day of Emergence” value [1, 5] was 12.14 ± 1.08. The “Wave emergence after the first Cetrorelix injection, average” value [1] was 7.92 ± 0.24 days, the “Wave emergence after the first Cetrorelix injection, average” value ([1]; listed as Cetrorelix acetate) was “about 7.92±0.24 days” and the “Interval from first treatment to next wave emergence, range” value ([1]; D5 group) was 7 to 9 days. The “Interval from first treatment to next wave emergence, range” value ([1]; D10 group) was 7 to 9 days, the “Wave emergence after the cetrorelix treatment irrespective of the phase of the dominant follicle” value ([2]; single 3 mg (about 7.5 ug/kg) i/m, groups combined) was “about 3.5±0.4 days” and the “Start of dominant follicle regression after cetrorelix treatment” value ([2]; single 3 mg i/m) was at most 2 days. For the same molecule, the “Day of second wave emergence” value [2, 6] was 4.4 ± 0.5^c, the “Days from second wave emergence to ovulation” value (from here on “Days … to ovulation”) [2, 6] was 10.0 ± 0.6^ab* Days and the “Pregnancy rate (Pregnant/AI, percent)” value [2, 6] was “(62%)”. For the same molecule, the “Treatment to wave emergence” value [2, 6] was 3.4 ± 0.5 days, the Pregnant/AI [2, 6] was 5/8 and the Ovulatory follicle size [2, 6] was 14.4 ± 1.0. The “Day of second wave emergence” value [2, 7] was 7.0 ± 0.4^b, the “Days … to ovulation” value [2, 7] was 9.0 ± 0.4^ab Days and the “Pregnancy rate (Pregnant/AI, percent)” value [2, 7] was “(66%)”. The “Treatment to wave emergence (days)” value [2, 7] was 4.0 ± 0.4^ days, the Pregnant/AI [2, 7] was 4/6 and the Ovulatory follicle size [2, 7] was 15.8 ± 0.6. The “Day of second wave emergence” value [2, 8] was 9.4 ± 0.5^a, the “Days … to ovulation” value [2, 8] was 8.4 ± 0.4^b Days and the “Pregnancy rate (Pregnant/AI, percent)” value [2, 8] was “(42%)”. For the same molecule, the “Treatment to wave emergence” value [2, 8] was 3.4 ± 0.5 days, the Pregnant/AI [2, 8] was 3/7 and the Ovulatory follicle size [2, 8] was 14.9 ± 0.3. For the same molecule, the “Overall pregnancy rate, percent” value [2, 9] was 57% and the “Overall pregnancy rate, pregnant/AI” value [2, 9] was 12/21.
